Experimental data reported in patent US11795200B2, “Nano small peptide and its use in preparation of drugs for treating and preventing fundus vascular diseases” (FUTU Biotech Co., Ltd., priority 2021, dated 2023).
Non-standard residues stand in square brackets, D forms with d. Residues, ends and D or L forms follow the SMILES beside them. No end group written: not given here. *: point of attachment. Palmitoyl = CCCCCCCCCCCCCCCC(=O)*

Legend:
OIR model mice = assay: Evans blue leakage test, fundus vascular leakage; assay type: in vivo, mouse; settings: for vascular leakage of the fundus: 2 nmol injected into the vitreous; for treatment effect on vascular leakage compared with anti-Sema4D: 2 nmol vs 1 μg BMA-12, intravitreal
sSema4D [1] = biological target: T1, sSema4D (Mus musculus, UniProt O09126); assay: ELISA of sSema4D in vitreous humor after eye drops; assay type: in vivo; design: from tissue; host or cells: vitreous humor of C57 mice; settings: eye drops 10 μL of 20 μM, twice daily, 3 days
T1 sequence (O09126 24-733 limits assumed): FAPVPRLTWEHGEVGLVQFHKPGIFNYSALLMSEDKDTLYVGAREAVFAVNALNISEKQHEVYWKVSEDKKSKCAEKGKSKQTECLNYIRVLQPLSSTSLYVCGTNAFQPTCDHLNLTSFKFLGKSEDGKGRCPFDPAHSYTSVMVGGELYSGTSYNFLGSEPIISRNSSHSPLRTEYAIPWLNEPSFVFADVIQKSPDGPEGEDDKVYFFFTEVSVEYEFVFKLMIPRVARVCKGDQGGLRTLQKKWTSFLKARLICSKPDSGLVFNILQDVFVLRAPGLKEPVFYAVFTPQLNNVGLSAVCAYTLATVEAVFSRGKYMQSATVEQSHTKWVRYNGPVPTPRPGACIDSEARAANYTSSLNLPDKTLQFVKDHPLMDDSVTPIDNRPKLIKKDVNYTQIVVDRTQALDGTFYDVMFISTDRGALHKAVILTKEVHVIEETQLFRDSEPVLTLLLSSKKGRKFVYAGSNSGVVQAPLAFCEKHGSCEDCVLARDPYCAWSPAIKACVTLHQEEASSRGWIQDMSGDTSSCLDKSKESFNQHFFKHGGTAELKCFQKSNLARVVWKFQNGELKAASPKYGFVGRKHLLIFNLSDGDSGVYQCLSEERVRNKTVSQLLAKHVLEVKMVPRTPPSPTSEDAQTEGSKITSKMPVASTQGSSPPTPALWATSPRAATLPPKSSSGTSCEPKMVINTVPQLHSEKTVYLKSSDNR
From the text: In this example, 8-week-old C57 male mice were used, with ten data points in each group, and each data point was the average of the experimental results of 5 mice.
The water on the eyeballs was then removed with filter paper to release and collect the vitreous humor. ELISA kit (Shanghai Yuanmu Biotechnology Co., Ltd.) was used to detect the expression of sSema4D protein in vitreous humor.
Control group was instilled with the same volume of PBS solution; vehicle group was instilled the same volume of artificial tears (Systane).

[2] = test system: primary mouse brain microvascular endothelial cells; assay: sSema4D-induced endothelial cell migration (transwell experiment); assay type: cell-based; settings: 24 h; for inhibition of endothelial cell migration compared with BMA-12: 20 μM vs BMA-12 2 μg/μL; for sSema4D-induced endothelial cell migration: 20 μM, sSema4D 1600 ng/mL
Procedure: The primary mouse brain microvascular endothelial cells were starved with 0.5% ECM for 4 to 6 h. The mouse brain microvascular endothelial cells were seeded in the upper layer of a 24-well transwell chamber ([…]). 1% ECM medium containing FH (20 μM), FG (20 μM), and Sema4D neutralizing antibody (BMA-12) (2 μg/μL) (the concentration of sSema4D in the medium is 1600 ng/mL) was added to the lower chamber, and an equal volume of DMSO was added as control. The cells were incubated in a 5% CO2 incubator at 37° C. for 24 h. 24 h later, the cells on the bottom of the chamber were fixed with 4% paraformaldehyde and stained with crystal violet, and the endothelial cells that penetrated to the bottom of the chamber were counted under a microscope.

[3] = DLS particle size and zeta potential of FH and FG nanoparticles; assay type: physicochemical; settings: zeta sizer, 25° C.
Procedure: First, FG and FH nanoparticle solutions with a concentration of 20 μM were prepared as follows. 0.01 mmol of FG (or FH) was weighed and dissolved in 1 mL of DMSO solution, and then diluted into 5 folds to a concentration of 2 mM, thus obtaining mother solution A. 10 μL of mother solution A was quickly added to 1 mL of water, and the resulting solution was then vortexed for 30 s to obtain a nanoparticle solution. Second, samples were made. 10 ul of FG (or FH) solution was added dropwise onto a copper mesh for 5 min, and the excess solution was removed with filter paper. 10 μL of uranyl acetate stain was added dropwise for 5 min, and the excess stain was removed with filter paper. Washing with 10 μl of deionized water was carried out once. The samples were dried in vacuum overnight. Finally, transmission electron microscopy observations were performed on an HT-7700 transmission electron microscope (Hitachi, Tokyo, Japan). Scale bar was 200 nm.
The particle size and zeta potential of FH and FG nanoparticles were measured with a zeta sizer (Nano ZZ90, Malvern, UK) at 25° C.

sSema4D [4] = biological target: T1, sSema4D; assay: Reduction of sSema4D concentration in a simple medium system (ELISA); assay type: biochemical; design: the free Sema4D protein after enzyme cleavage of Sema4D; purchased R&D Systems; settings: for sSema4D concentration: medium with 1600 ng/mL sSema4D, FH, FG 20 μM, BMA-12 2 μg/μL
Procedure: The nano small peptides FH, FG, DMSO, and Sema4D neutralizing antibody (BMA-12) were added to the medium (the concentration of sSema4D in the medium was 1600 ng/mL) to ensure that the final concentration of FH and FG was 20 μM, and the final concentration of the Sema4D neutralizing antibody (BMA-12) (BMA-12, i.e., anti-Sema4D) was 2 μg/μL, an equal volume of DMSO was then added as a control, and culture plates were set still at 37° C. for 12, 24, 36, and 48 h, and the culture medium was collected, and the expression of Sema4D protein in the supernatant was detected using an ELISA kit (Shanghai Yuanmu Biotechnology Co., Ltd.).

[5] = test system: primary mouse brain microvascular pericytes; assay: sSema4D-induced pericyte migration (transwell experiment); assay type: cell-based; settings: 36 h; for sSema4D-induced pericyte migration: 20 μM, sSema4D 1600 ng/mL
Procedure: The primary mouse brain microvascular pericytes were starved with 0.5% PM for 4 to 6 h. The pericytes were seeded in the upper layer of a 24-well transwell chamber (8 μm). The medium containing FH (20 μM), FG (20 μM), and Sema4D neutralizing antibody (BMA-12) (2 μg/μL) (the concentration of sSema4D in the medium is 1600 ng/mL) was added to the lower chamber, and an equal volume of DMSO was added as control. The cells were incubated in a 5% CO2 incubator at 37° C. for 36 h. 36 h later, the cells on the bottom of the chamber were fixed with 4% paraformaldehyde and stained with crystal violet, and the pericytes that penetrated to the bottom of the chamber were counted under a microscope.

Row | Compound | vascular leakage of the fundus (OIR model mice) | treatment effect on vascular leakage compared with anti-Sema4D (OIR model mice) | expression of sSema4D protein in the vitreous humor (sSema4D [1]) | inhibition of endothelial cell migration compared with BMA-12 [2] | sSema4D-induced endothelial cell migration [2] | charges (zeta potential) [3] | particle diameters [3] [nm] | sSema4D concentration (sSema4D [4]; 24 h) | sSema4D concentration (sSema4D [4]; 36 h) | effect on sSema4D concentration, FH compared with FG (sSema4D [4]; within the same action time, 20 μM) | inhibition of pericyte migration compared with BMA-12 ([5]; 20 μM vs BMA-12 2 μg/μL) | sSema4D-induced pericyte migration [5]
1 | CCCCCCCCCCCCCCCC(=O)N[C@H](Cc1ccccc1)C(=O)N[C@@H](Cc1ccccc1)C(=O)N[C@H](C(=O)N[C@@H](CC(C)C)C(=O)N[C@@H](CCCCN)C(=O)N[C@@H](CCCCN)C(=O)N[C@@H](CCC(N)=O)C(=O)N[C@@H](CCCCN)C(=O)N[C@@H](CCCNC(=N)N)C(=O)N1CCC[C@H]1C(=O)N[C@@H](CCCNC(=N)N)C(=O)N[C@@H](Cc1c[nH]cn1)C(=O)O)C(C)C [FH] (Palmitoyl-[dF]FVLKKQKRPRH-OH) | can inhibit vascular leakage of the fundus | comparable to that of anti-Sema4D | reduce the expression of sSema4D protein in the vitreous humor | more effective in inhibiting endothelial cell migration than Sema4D neutralizing antibody (BMA-12) | can significantly inhibit the sSema4D-induced endothelial cell migration | +40.4 mV | 54.43±2.8 | can reduce the sSema4D concentration | can still reduce the sSema4D concentration | better than that of FG | more effective in inhibiting pericyte migration than Sema4D neutralizing antibody (BMA-12) | can significantly inhibit the sSema4D-induce pericyte migration
2 | Palmitoyl-FFVLKKNKAAKG [FG] | can inhibit vascular leakage of the fundus | comparable to that of anti-Sema4D | reduce the expression of sSema4D protein in the vitreous humor | more effective in inhibiting endothelial cell migration than Sema4D neutralizing antibody (BMA-12) | can significantly inhibit the sSema4D-induced endothelial cell migration | +44.8 mV | 57.67±2.6 | can reduce the sSema4D concentration | can still reduce the sSema4D concentration | – | – | can significantly inhibit the sSema4D-induce pericyte migration
